Source: PubChem BioAssay AID2286 (Southern Research Specialized Biocontainment Screening …, 2010)
Calls of active or inactive are those of the source.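 How the source made its calls: active means minimum cell viability of 80% or lower across the dose range, counted as toxic; inactive means minimum cell viability above 80%.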

Tests used:
[1] = system: MAGI-CCR5 cells viability, CellTiter-Glo ATP luminescence; assay: viability loss in fusion assay cells – cell-based, MAGI and MAGI-HeLa co-culture, cytotoxicity control for HIV-1 fusion inhibitor project, dose response (AID 2286);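 further: cells exposed to compound for at least 64 h before ATP readout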;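 on minimum viability: 100% = median of DMSO vehicle wells with no ATP signal meaning 0%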;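 on viability: 100% = median of DMSO vehicle wells with no ATP signal meaning 0%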
[2] = as above; details: MAGI-CCR5 cells viability, CellTiter-Glo ATP luminescence; for minimum viability: measured here: MAGI minimum viability across doses
[3] = measured here: MAGI + HeLa-R5-16 co-culture viability
[4] = MAGI-HeLa co-culture viability, at 50 µM, stronger effect = lower value
[5] = at 12.5 µM, stronger effect = lower value
[6] = at 3.13 µM, stronger effect = lower value

SMILES | CC50 [1] [µM] | CC50 [1, 3] [µM] | viability [2, 4] [%] | minimum viability ([2]; at 50 µM, stronger effect = lower value) [%] | viability ([2]; at 50 µM (top of the series)) | minimum viability [2, 5] [%] | minimum viability [2, 6] [%] | minimum viability ([2]; at 1.56 µM, stronger effect = lower value) [%] | minimum viability ([2]; at 25 µM, stronger effect = lower value) [%]
O=[N+]([O-])c1cc([N+](=O)[O-])c2oc(-c3ccccc3)c(Br)c2c1O | 22.5 | > 50 | 57.6 | 34.5 | – | – | – | – | –
CCOc1cc(/C=N/N=C2/NC(=O)C(CC(=O)O)S2)ccc1OCc1ccc(Cl)cc1 (stereo not given) | – | > 50 | 75.2 | – | 101% (inactive) | 85.4 | – | – | –
O=C(Nc1ccc(Oc2ccc(Cl)cc2)c(Cl)c1)c1cc(I)cc(I)c1O | 13.6 | 25.2 | 11.8 | 10.4 | – | – | – | – | –
CSc1nnc(-c2ccccc2N=Cc2c(C)[nH]n(-c3ccc4ccccc4c3)c2=O)c(=O)[nH]1 | – | > 50 | 55.5 | 53.7 | – | – | – | – | –
O=S(=O)(Nc1nc2ccccc2nc1Nc1cccc(S(=O)(=O)N2CCCCC2)c1)c1ccccc1 | 9.47 | 18.8 | 23.4 | 21.9 | – | – | – | – | –
O=C(O)CN1C(=O)/C(=C\c2ccccc2OCc2ccc(Cl)cc2Cl)SC1=S | – | > 50 | 67.5 | 84.5 | 84.5% (inactive) | – | – | – | –
O=C(Nc1cc(S(=O)(=O)N2CCCCC2)ccc1Cl)c1ccccc1NS(=O)(=O)c1ccc(F)cc1 | 2.49 | 7.38 | 24.8 | – | – | 19.1 | – | – | –
COc1ccc(C(=O)/C=C/c2ccc(OCc3ccccc3)cc2)cc1CSCC(=O)O | 46 | – | 86.3 | 42.6 | – | – | – | – | –
O=[N+]([O-])c1cc(Cl)cc(/C=N/NC(=S)Nc2ccc(S(=O)(=O)N3CCOCC3)cc2)c1O | – | > 50 | 65.6 | – | 98.8% (inactive) | – | 89.3 | – | –
COc1ccc2c(c1)cc(C(=O)N/N=C/c1c(O)c(C(=O)O)cc3ccccc13)n2C | – | > 50 | 75.1 | – | 95.6% (inactive) | – | – | 89.5 | –
O=C(O)c1ccc(N2C(=O)/C(=C/c3ccc(-c4ccc([N+](=O)[O-])cc4)o3)C=C2c2ccccc2)cc1 | 35.4 | > 50 | 65.7 | – | – | – | – | – | 46.8
O=S(=O)(Nc1nc(-c2sccc2Cl)cs1)c1cc(Cl)ccc1Cl | – | > 50 | 70.8 | 47.7 | – | – | – | – | –
O=c1cc(-c2ccccc2)nc2c(-c3ccccc3)c(C(F)(F)F)[nH]n12 | 49.1 | – | 81.4 | 53.2 | – | – | – | – | –
CCOc1cc(/C=C2/C(=N)N3C(=NC2=O)SN=C3S(C)(=O)=O)ccc1OS(=O)(=O)c1ccccc1 | – | > 50 | 68.9 | 81.5 | 81.5% (inactive) | – | – | – | –
CCC(C)(C)C1CCc2c(sc(NC(=O)c3ccccc3C(=O)O)c2C#N)C1 (stereo not given) | – | > 50 | 50.7 | 55.5 | – | – | – | – | –
O=C(O)CCn1cc(/C=C/C(=O)c2ccc(Cl)cc2)c(-c2cccc(Br)c2)n1 | 43.1 | – | 87 | 40.5 | – | – | – | – | –
O=C(NN1C(=O)/C(=C/c2ccc(O)cc2)SC1=S)c1ccccc1O | 26.7 | 41.3 | 36.5 | 27.6 | – | – | – | – | –
COc1cc([N+](=O)[O-])cc(/C=N/NC(=O)c2cc(-c3ccccc3)nc3ccccc23)c1O | – | > 50 | 56.7 | – | – | – | – | – | 53.9
CC1(c2ccccc2)CC(C)(C)N2C(=O)/C(=C3\SC(=S)NC3=O)c3cccc1c32 (stereo not given) | 14.1 | 37 | 40.9 | 22.5 | – | – | – | – | –
CC(/C=C1\SC(=S)N(CCCC(=O)Nc2ccc(C(=O)O)cc2)C1=O)=C\c1ccccc1 | – | > 50 | 69.6 | 60.9 | – | – | – | – | –
COc1ccc(-c2csc(NC(=O)c3ccccc3NS(=O)(=O)c3ccc(C)cc3)n2)cc1 | 4.93 | 10.9 | 24.4 | 20 | – | – | – | – | –
O=C(O)CN1C(=O)/C(=C\c2cc(Br)ccc2OCc2ccc(Cl)cc2Cl)SC1=S | – | 25.6 | 37.6 | 93.8 | 93.8% (inactive) | – | – | – | –

SMILES | CC50 [1] [µM] | CC50 [1, 3] [µM] | viability [2, 4] [%] | minimum viability ([2]; at 50 µM, stronger effect = lower value) [%] | viability ([2]; at 50 µM (top of the series)) | minimum viability [2, 5] [%] | minimum viability [2, 6] [%] | minimum viability ([2]; at 1.56 µM, stronger effect = lower value) [%] | minimum viability ([2]; at 25 µM, stronger effect = lower value) [%]
CCOc1ccc(CCNC(=O)c2ccc3c(=O)[nH]c4c(C(=O)NC(C)C)sc(=S)n4c3c2)cc1 | 37.2 | – | 93.9 | 45.6 | – | – | – | – | –
O=[N+]([O-])c1cc(Cl)cc(/C=N/NC(=S)Nc2cc(S(=O)(=O)N3CCOCC3)ccc2Cl)c1O | 31.1 | > 50 | 65.7 | 34.7 | – | – | – | – | –
CCCOc1cccc(C2C(C(=O)c3cc4ccccc4o3)=C(O)C(=O)N2c2cc(C)on2)c1 (stereo not given) | 49.8 | – | 90.1 | 49.1 | – | – | – | – | –
O=C(O)CN1C(=O)/C(=C\c2cc(Br)ccc2OCc2ccc([N+](=O)[O-])cc2)SC1=S | – | 19.9 | 24.7 | 69.8 | – | – | – | – | –
O=C(NC(=S)Nc1ccccc1C(=O)O)c1ccc(-c2ccc(Br)cc2)o1 | – | > 50 | 59.6 | 77.9 | – | – | – | – | –
Cc1cc(Cl)ccc1OC(C)C(=O)Nc1ccc(C(=O)Nc2ccccc2C(=O)O)cc1 (stereo not given) | 48.8 | > 50 | 63.6 | 49.8 | – | – | – | – | –
CCS(=O)(=O)C1=NN2C(=N)/C(=C\c3ccc(OCCOc4cccc(OC)c4)c(OC)c3)C(=O)N=C2S1 | – | 40.1 | 50 | 83.7 | 83.7% (inactive) | – | – | – | –
O=C1/C(=C\c2ccc(O)c(O)c2)C(c2ccccc2)=NN1c1ccccc1 | 38.4 | 48.7 | 34.7 | 28.1 | – | – | – | – | –
CCc1ccc(S(=O)(=O)/N=C2\C=C(NS(=O)(=O)c3ccccc3)C(=O)c3ccccc32)cc1 | – | > 50 | 80 | 74.4 | – | – | – | – | –
C/C(=N\Nc1ccc(C(=O)O)cc1)c1ccc2c(c1)Nc1ccccc1S2 | 46.2 | 26.2 | 52.7 | 47.2 | – | – | – | – | –
CCCCCCCCCCCCCCCCn1cc[n+](CC(C)=O)c1 | 1.36 | 2.09 | 3.56 | 2.77 | – | – | – | – | –
CCCCCC(=O)Cc1cc(O)cc2c1C(=O)Oc1cc(O)c(C(=O)O)c(CCCCC)c1O2 | 43.3 | 46.7 | 46.4 | 39.1 | – | – | – | – | –
Cc1ccccc1C(=O)Nc1cccc(C(=O)N/N=C/c2cc(Cl)cc([N+](=O)[O-])c2O)c1 | – | > 50 | 68.4 | 52.8 | – | – | – | – | –
O=c1cc(-c2ccccc2Cl)oc2c(NS(=O)(=O)c3cc(Cl)cc(Cl)c3O)ccc(O)c12 | 5.61 | 15.6 | 20.8 | 16.3 | – | – | – | – | –
COc1ccc(/C=C2/SC(=S)N(CC(=O)O)C2=O)cc1OCc1ccc(Cl)cc1 | – | > 50 | 67 | – | 104% (inactive) | – | 85.8 | – | –
O=C(NN1C(=O)/C(=C/c2ccc(O)c([N+](=O)[O-])c2)SC1=S)c1ccccc1Cl | – | > 50 | 76.4 | 67.5 | – | – | – | – | –
O=C(O)c1ccc(Nc2nc(-c3cc4ccccc4oc3=O)cs2)cc1O | – | > 50 | 77.6 | 85.6 | 85.6% (inactive) | – | – | – | –
O=C(N/N=C/c1ccc(-c2ccc(S(=O)(=O)Nc3ncccn3)cc2)o1)c1cc2ccccc2cc1O | 15.8 | 32.6 | 30.7 | 16.4 | – | – | – | – | –
O=C(O)CCn1cc(/C=C/C(=O)c2ccc(Cl)cc2)c(-c2ccc(Br)cc2)n1 | 30.7 | 45.5 | 36.4 | 11.5 | – | – | – | – | –
CCOC(=O)c1sc2nc3c(SCCC(=O)O)cc(C(=O)c4cc(OC)ccc4O)cn3c(=O)c2c1C | – | > 50 | 65.6 | 68.7 | – | – | – | – | –
O=C(O)c1cc(-c2ccc(-c3c(-c4ccc5c(c4)OCO5)noc3-c3ccsc3)cc2)nc2ccccc12 | 32.5 | > 50 | 64.8 | 40.9 | – | – | – | – | –
COc1ccc(C(=O)/C=C/c2cccc(OCc3ccccc3)c2)cc1CSCC(=O)O | 28.5 | 46.4 | 13.8 | 5.22 | – | – | – | – | –
